SMILES strings stand for the structures. Where “and” joins values, the source holds several entries; their conditions need not be identical. Identical values can stand only once. Inconclusive results and toxic doses are left out.

This test relates to AKR/Lw mice, AKR lymphoma ip, median survival T/C. As to the kind of experiment: NCI In Vivo Anticancer Drug Screen. Data for tumor model Lymphoma AKR (Transplanted) (intraperitoneal) in AKR/Lw mice. The following applies: endpoint: median survival time, higher = longer survival. As to the method:
The antitumor activity of compounds was measured in mice bearing transplantable tumors. Survival or tumor size were measured and the results are expressed as the measurement made in the treated group (T) divided by the measurement made in the vehicle treated control group (C). The tumor model used in this assay is Lymphoma AKR (Transplanted) (intraperitoneal) in AKR/Lw mice

The mark [1] stands for this setting: dose: 100.0 mg/kg/injection, schedule: Q01DX001 (ip), vehicle: saline.
[2] abbreviates: dose: 200.0 mg/kg/injection, schedule: Q01DX001 (ip), vehicle: saline.
[3] abbreviates: dose: 400.0 mg/kg/injection, schedule: Q01DX001 (ip), vehicle: saline.
Setting [4] is: dose: 100.0 mg/kg/injection, schedule: Q01DX001 (ip), vehicle: Klucel (hydroxypropylcellulose) (HPC).
Where [5] appears, read: dose: 200.0 mg/kg/injection, schedule: Q01DX001 (ip), vehicle: Klucel (hydroxypropylcellulose) (HPC).
Where [6] appears, read: dose: 400.0 mg/kg/injection, schedule: Q01DX001 (ip), vehicle: Klucel (hydroxypropylcellulose) (HPC).
Setting [7] is: dose: 25.0 mg/kg/injection, schedule: Q01DX001 (ip), vehicle: saline.

As for `O=c1[nH]c(=O)n(C2CC(O)C(CO)O2)cc1F` (stereo unspecified), the T/C is, setting by setting: (dose: 3.1 mg/kg/injection, schedule: Q04DX003 (ip), vehicle: saline) 100 % of control; (dose: 5.0 mg/kg/injection, schedule: Q01DX009 (ip), vehicle: saline) 100 % of control; (dose: 6.2 mg/kg/injection, schedule: Q04DX003 (ip), vehicle: saline) 92 % of control; (dose: 6.25 mg/kg/injection, schedule: Q01DX009 (ip), vehicle: saline) 104 % of control; (dose: 10.0 mg/kg/injection, schedule: Q01DX009 (ip), vehicle: saline) 106 % of control; (dose: 11.0 mg/kg/injection, schedule: Q01DX015 (ip), vehicle: saline) 86 % of control. The T/C by setting is: (dose: 12.5 mg/kg/injection, schedule: Q01DX015 (ip), vehicle: saline) 117 % of control; (dose: 12.5 mg/kg/injection, schedule: Q04DX003 (ip), vehicle: saline) 94 % of control and 102 % of control; (dose: 15.0 mg/kg/injection, schedule: Q01DX009 (ip), vehicle: saline) 102 % of control and 123 % of control; (dose: 16.5 mg/kg/injection, schedule: Q01DX015 (ip), vehicle: saline) 86 % of control; (dose: 25.0 mg/kg/injection, schedule: Q01DX015 (ip), vehicle: saline) 113 % of control; (dose: 25.0 mg/kg/injection, schedule: Q04DX003 (ip), vehicle: saline) 90 % of control and 97 % of control. Further, the T/C is, setting by setting: (dose: 40.0 mg/kg/injection, schedule: Q01DX015 (ip), vehicle: saline) 86 % of control; (dose: 50.0 mg/kg/injection, schedule: Q01DX015 (ip), vehicle: saline) 114 % of control and 121 % of control; (dose: 60.0 mg/kg/injection, schedule: Q01DX001 (ip), vehicle: saline) 111 % of control; (dose: 60.0 mg/kg/injection, schedule: Q01DX009 (ip), vehicle: saline) 112 % of control and 117 % of control; (dose: 75.0 mg/kg/injection, schedule: Q01DX009 (ip), vehicle: saline) 115 % of control; under setting [1], 95 % of control and 97 % of control. The T/C (dose: 100.0 mg/kg/injection, schedule: Q04DX003 (ip), vehicle: saline) is 86 % of control and 90 % of control and 104 % of control; the T/C (dose: 120.0 mg/kg/injection, schedule: Q01DX001 (ip), vehicle: saline) was 107 % of control; the T/C (dose: 150.0 mg/kg/injection, schedule: Q01DX001 (ip), vehicle: saline) was 105 % of control and 110 % of control and 116 % of control; the T/C (dose: 150.0 mg/kg/injection, schedule: Q04DX003 (ip), vehicle: saline) was 123 % of control; the T/C under setting [2] is 104 % of control and 105 % of control and 119 % of control; the T/C (dose: 250.0 mg/kg/injection, schedule: Q04DX003 (ip), vehicle: saline) is 150 % of control.
As for `OCC1(O)CC(O)C(O)(CO)CC1O` (stereo unspecified), the T/C runs as follows: under setting [1], 97 % of control; under setting [2], 116 % of control; under setting [3], 104 % of control.
For `O=NN(CCCl)C(=O)N[C@H]1CCCC[C@@H]1Cl`, the T/C by setting is: (dose: 5.0 mg/kg/injection, schedule: Q04DX004 (ip), vehicle: Klucel (hydroxypropylcellulose) (HPC)) 123 % of control; (dose: 5.0 mg/kg/injection, schedule: Q04DX004 (ip), vehicle: saline) 117 % of control; (dose: 20.0 mg/kg/injection, schedule: Q04DX004 (ip), vehicle: Klucel (hydroxypropylcellulose) (HPC)) 97 % of control.
With `Nc1nc(=S)c2[nH]cnc2[nH]1`, the T/C is 96 % of control (dose: 0.12 mg/kg/injection, schedule: Q01DX009 (ip), vehicle: saline); 96 % of control (dose: 0.25 mg/kg/injection, schedule: Q01DX009 (ip), vehicle: saline); 110 % of control (dose: 0.5 mg/kg/injection, schedule: Q01DX009 (ip), vehicle: saline); 110 % of control (dose: 0.5 mg/kg/injection, schedule: Q04DX003 (ip), vehicle: saline); 93 % of control and 100 % of control (dose: 1.0 mg/kg/injection, schedule: Q01DX009 (ip), vehicle: saline); 120 % of control (dose: 1.0 mg/kg/injection, schedule: Q04DX003 (ip), vehicle: saline). For the same molecule, the T/C was 87 % of control (dose: 2.0 mg/kg/injection, schedule: Q01DX009 (ip), vehicle: saline); 116 % of control (dose: 2.0 mg/kg/injection, schedule: Q04DX003 (ip), vehicle: saline); 120 % of control (dose: 4.0 mg/kg/injection, schedule: Q04DX003 (ip), vehicle: saline); 87 % of control (dose: 8.0 mg/kg/injection, schedule: Q04DX003 (ip), vehicle: saline); 118 % of control (dose: 16.0 mg/kg/injection, schedule: Q04DX003 (ip), vehicle: saline); 98 % of control (dose: 6.2 micrograms/kg/injection, schedule: Q03HX032 (ip), vehicle: saline). Moreover, the T/C is, setting by setting: (dose: 12.5 micrograms/kg/injection, schedule: Q03HX032 (ip), vehicle: saline) 98 % of control; (dose: 25.0 micrograms/kg/injection, schedule: Q03HX032 (ip), vehicle: saline) 101 % of control; (dose: 50.0 micrograms/kg/injection, schedule: Q03HX032 (ip), vehicle: saline) 114 % of control; (dose: 100.0 micrograms/kg/injection, schedule: Q03HX032 (ip), vehicle: saline) 118 % of control.
Regarding `NC(CSC(c1ccccc1)(c1ccccc1)c1ccc(CO)cc1)C(=O)O` (stereo unspecified), the T/C by setting is: under setting [4], 100 % of control; under setting [5], 94 % of control; under setting [6], 110 % of control.
On to `COc1cc2ccc(CC(=O)NCc3ccccc3)cc2cc1OC`, for which the T/C is, setting by setting: under setting [1], 117 % of control; under setting [2], 107 % of control; (dose: 200.0 mg/kg/injection, schedule: Q04DX003 (ip), vehicle: other) 95 % of control; under setting [3], 103 % of control.
For `CCCN(CCC)CC(C)=O`, the T/C is 106 % of control (dose: 11.0 mg/kg/injection, schedule: Q01DX001 (ip), vehicle: saline); 103 % of control (dose: 17.0 mg/kg/injection, schedule: Q01DX001 (ip), vehicle: saline); 100 % of control under setting [7]; 100 % of control (dose: 37.5 mg/kg/injection, schedule: Q01DX001 (ip), vehicle: saline); 115 % of control (dose: 50.0 mg/kg/injection, schedule: Q01DX001 (ip), vehicle: saline); 105 % of control and 110 % of control under setting [1].
With `CC(=O)NC1CC2c3ccccc3C1([N+](=O)[O-])c1ccccc12` (stereo unspecified), the T/C was 104 % of control under setting [4], 97 % of control under setting [5] and 102 % of control under setting [6].
The matching figures for `CC(C)n1c(=S)[nH]c2ccccc2c1=O`: 90 % of control, 118 % of control and 104 % of control.
`CC(=O)OCC(=O)[C@@]1(O)CC[C@H]2[C@@H]3C[C@H](F)C4=CC(=O)CC[C@]4(C)[C@H]3C(=O)C[C@@]21C`: the T/C is, setting by setting: (dose: 50.0 mg/kg/injection, schedule: Q04DX003 (ip), vehicle: saline with Tween-80) 103 % of control; (dose: 100.0 mg/kg/injection, schedule: Q01DX001 (ip), vehicle: saline with Tween-80) 90 % of control; (dose: 200.0 mg/kg/injection, schedule: Q01DX001 (ip), vehicle: saline with Tween-80) 111 % of control.
With `COc1ccc(/C=C2/CSC/C(=C/c3ccc(OC)c(OC)c3)C2=O)cc1OC`, the T/C under setting [1] was 96 % of control, the T/C under setting [2] is 88 % of control and the T/C under setting [3] is 90 % of control.
Consider `OCC#CC#CCO`, for which the T/C under setting [1] is 100 % of control and the T/C under setting [2] was 92 % of control.
In the case of `CN(C)CCCc1c2ccccc2nc2ccc(Cl)cc12`, the T/C by setting is: (dose: 6.0 mg/kg/injection, schedule: Q01DX001 (ip), vehicle: saline) 100 % of control; (dose: 12.0 mg/kg/injection, schedule: Q01DX001 (ip), vehicle: saline) 103 % of control; under setting [7], 109 % of control.
On to `C[N+](C)(C)Cc1ccccc1`, for which the T/C under setting [7] was 91 % of control.
Turning to `C/C=C(/C)N(C(C)=O)N(C(C)=O)c1ccc([N+](=O)[O-])cc1[N+](=O)[O-]`, the T/C is, setting by setting: under setting [4], 93 % of control; under setting [5], 93 % of control; (dose: 200.0 mg/kg/injection, schedule: Q04DX003 (ip), vehicle: Klucel (hydroxypropylcellulose) (HPC)) 93 % of control; under setting [6], 93 % of control.

The values above are taken from PubChem BioAssay AID190 (DTP/NCI, 2004).
